From patent US9586962B2, “Disubstituted octahydropyrrolo [3,4-C] pyrroles as orexin receptor modulators” (Janssen Pharmaceutica NV, priority 2011, dated 2017)

biological target: T1, human orexin 2 receptor (Homo sapiens (Human), UniProt O43614); assay: Human orexin 2 receptor Ca2+ mobilization assay (FLIPR, PFSK cells, orexin B 100 nM); format: cell-based; settings: modified Cheng-Prusoff correction, read-out: OR 2 Kb
T1 sequence (O43614 whole entry): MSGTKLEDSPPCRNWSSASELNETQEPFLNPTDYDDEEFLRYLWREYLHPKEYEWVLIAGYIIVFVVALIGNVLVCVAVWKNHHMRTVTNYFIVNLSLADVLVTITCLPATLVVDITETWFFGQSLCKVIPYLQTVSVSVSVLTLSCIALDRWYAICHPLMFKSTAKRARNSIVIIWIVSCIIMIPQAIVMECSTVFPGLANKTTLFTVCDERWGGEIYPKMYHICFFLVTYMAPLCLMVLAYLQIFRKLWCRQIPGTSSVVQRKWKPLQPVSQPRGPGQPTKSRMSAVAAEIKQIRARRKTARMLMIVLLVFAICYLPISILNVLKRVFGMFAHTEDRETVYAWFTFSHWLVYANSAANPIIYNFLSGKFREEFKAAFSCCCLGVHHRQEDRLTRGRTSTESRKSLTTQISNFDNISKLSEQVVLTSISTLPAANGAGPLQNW

In the case of Cc1noc(-c2c(F)cccc2C(=O)N2CC3CN(c4ncc(F)c(C)n4)CC3C2)n1 (stereo not drawn) [Example 440, 2-{[3-Fluoro-2-(3-methyl-1,2,4-oxadiazol-5-yl)phenyl]carbonyl}-5-(5-fluoro-4-methylpyrimidin-2-yl)octahydropyrrolo[3,4-c]pyrrole], the Kb is reported as 15 nM.

biological target: T1, human orexin 2 receptor; assay: Human orexin 2 receptor radioligand binding ([3H]EMPA competition, HEK293 cells); settings: HEK293 cells expressing human orexin-2 receptor, read-out: OR 2 Ki

Point of comparison: Cc1cc(C)nc(N2CC3CN(C(=O)c4cccc5c4OCC5)CC3C2)n1 (stereo not drawn) [Example 463, 2-(2,3-Dihydro-1-benzofuran-7-ylcarbonyl)-5-(4,6-dimethylpyrimidin-2-yl)octahydropyrrolo[3,4-c]pyrrole], Ki 4000 nM. Against it:
- Cc1noc(-c2c(F)cccc2C(=O)N2CC3CN(c4ncc(F)c(C)n4)CC3C2)n1 (stereo not drawn) [Example 440, 2-{[3-Fluoro-2-(3-methyl-1,2,4-oxadiazol-5-yl)phenyl]carbonyl}-5-(5-fluoro-4-methylpyrimidin-2-yl)octahydropyrrolo[3,4-c]pyrrole] — 62-fold lower, 64 nM
- O=C(c1cccc(F)c1-c1cscn1)N1CC2CN(c3cnc4cc(F)c(F)cc4n3)CC2C1 (stereo not drawn) [Example 455, 6,7-Difluoro-2-[5-{[3-fluoro-2-(1,3-thiazol-4-yl)phenyl]carbonyl}hexahydropyrrolo[3,4-c]pyrrol-2(1H)-yl]quinoxaline] — 120-fold lower, 32 nM
- O=C(c1cccc(F)c1-c1[nH]ncc1F)N1CC2CN(c3cnc4cc(F)c(F)cc4n3)CC2C1 (stereo not drawn) [Example 456, 6,7-Difluoro-2-[5-{[3-fluoro-2-(4-fluoro-1H-pyrazol-5-yl)phenyl]carbonyl}hexahydropyrrolo[3,4-c]pyrrol-2(1H)-yl]quinoxaline] — 130-fold lower, 31 nM
- COc1ccc(C(=O)N2CC3CN(c4cnc5cc(F)c(F)cc5n4)CC3C2)c(-c2ncccn2)c1 (stereo not drawn) [Example 459, 6,7-Difluoro-2-{5-[(4-methoxy-2-pyrimidin-2-ylphenyl)carbonyl]hexahydropyrrolo[3,4-c]pyrrol-2(1H)-yl}quinoxaline] — 110-fold lower, 38 nM
- Cc1cccc(C(=O)N2CC3CN(c4cnc5cc(F)c(F)cc5n4)CC3C2)c1-n1nccn1 (stereo not drawn) [Example 460, 6,7-Difluoro-2-[5-{[3-methyl-2-(2H-1,2,3-triazol-2-yl)phenyl]carbonyl}hexahydropyrrolo[3,4-c]pyrrol-2(1H)-yl]quinoxaline] — 37-fold lower, 109 nM
- Cc1cc(C)nc(N2CC3CN(C(=O)c4c(C)nc5sccn45)CC3C2)n1 (stereo not drawn) [Example 464, 5-{[5-(4,6-Dimethylpyrimidin-2-yl)hexahydropyrrolo[3,4-c]pyrrol-2(1H)-yl]carbonyl}-6-methylimidazo[2,1-b][1,3]thiazole] — within 1.5-fold, 3900 nM
- COc1cccc(-n2nccn2)c1C(=O)N1CC2CN(c3nc(C)cc(C)n3)CC2C1 (stereo not drawn) [Example 465, 2-(4,6-Dimethylpyrimidin-2-yl)-5-{[2-methoxy-6-(2H-1,2,3-triazol-2-yl)phenyl]carbonyl}octahydropyrrolo[3,4-c]pyrrole] — 120-fold lower, 33 nM
- Cc1cc(C)nc(N2CC3CN(C(=O)c4c(F)cccc4-c4nccs4)CC3C2)n1 (stereo not drawn) [Example 476, 2-(4,6-Dimethylpyrimidin-2-yl)-5-{[2-fluoro-6-(1,3-thiazol-2-yl)phenyl]carbonyl}octahydropyrrolo[3,4-c]pyrrole] — 270-fold lower, 15 nM
- Cc1cc(C)nc(N2CC3CN(C(=O)c4c(F)cccc4-c4ncc(C)s4)CC3C2)n1 (stereo not drawn) [Example 477, 2-(4,6-Dimethylpyrimidin-2-yl)-5-{[2-fluoro-6-(5-methyl-1,3-thiazol-2-yl)phenyl]carbonyl}octahydropyrrolo[3,4-c]pyrrole] — 210-fold lower, 19 nM
- Cc1cc(C)nc(N2CC3CN(C(=O)c4c(F)cccc4-c4[nH]ncc4C(F)(F)F)CC3C2)n1 (stereo not drawn) [Example 478, 2-(4,6-Dimethylpyrimidin-2-yl)-5-({2-fluoro-6-[4-(trifluoromethyl)-1H-pyrazol-5-yl]phenyl}carbonyl)octahydropyrrolo[3,4-c]pyrrole] — 82-fold lower, 49 nM
- COc1ncc(-c2cccc(F)c2C(=O)N2CC3CN(c4nc(C)cc(C)n4)CC3C2)s1 (stereo not drawn) [Example 479, 2-(4,6-Dimethylpyrimidin-2-yl)-5-{[2-fluoro-6-(2-methoxy-1,3-thiazol-5-yl)phenyl]carbonyl}octahydropyrrolo[3,4-c]pyrrole] — 7.6-fold lower, 524 nM
- Cc1cc(C)nc(N2CC3CN(C(=O)c4c(F)cccc4C4=CC(=O)OC4)CC3C2)n1 (stereo not drawn) [Example 480, 4-(2-{[5-(4,6-Dimethylpyrimidin-2-yl)hexahydropyrrolo[3,4-c]pyrrol-2(1H)-yl]carbonyl}-3-fluorophenyl)furan-2(5H)-one] — within 1.5-fold, 3810 nM
- Cc1cc(C)nc(N2CC3CN(C(=O)c4c(F)cccc4-c4ncccc4F)CC3C2)n1 (stereo not drawn) [Example 481, 2-(4,6-Dimethylpyrimidin-2-yl)-5-{[2-fluoro-6-(3-fluoropyridin-2-yl)phenyl]carbonyl}octahydropyrrolo[3,4-c]pyrrole] — 170-fold lower, 24 nM
- Cc1cc(C)nc(N2CC3CN(C(=O)c4c(F)cccc4-c4cn(C)cn4)CC3C2)n1 (stereo not drawn) [Example 482, 2-(4,6-Dimethylpyrimidin-2-yl)-5-{[2-fluoro-6-(1-methyl-1H-imidazol-4-yl)phenyl]carbonyl}octahydropyrrolo[3,4-c]pyrrole] — 130-fold lower, 30 nM
- COc1ccnc(-c2cccc(F)c2C(=O)N2CC3CN(c4nc(C)cc(C)n4)CC3C2)n1 (stereo not drawn) [Example 483, 2-(4,6-Dimethylpyrimidin-2-yl)-5-{[2-fluoro-6-(4-methoxypyrimidin-2-yl)phenyl]carbonyl}octahydropyrrolo[3,4-c]pyrrole] — 360-fold lower, 11 nM
- Cc1cc(C)nc(N2CC3CN(C(=O)c4c(F)cccc4-c4ccc(Cl)cn4)CC3C2)n1 (stereo not drawn) [Example 484, 2-{[2-(5-Chloropyridin-2-yl)-6-fluorophenyl]carbonyl}-5-(4,6-dimethylpyrimidin-2-yl)octahydropyrrolo[3,4-c]pyrrole] — 17-fold lower, 230 nM
- CSc1nccc(-c2cccc(F)c2C(=O)N2CC3CN(c4nc(C)cc(C)n4)CC3C2)n1 (stereo not drawn) [Example 485, 2-(4,6-Dimethylpyrimidin-2-yl)-5-({2-fluoro-6-[2-(methylsulfanyl)pyrimidin-4-yl]phenyl}carbonyl)octahydropyrrolo[3,4-c]pyrrole] — 48-fold lower, 84 nM
- Cc1cc(C)nc(N2CC3CN(C(=O)c4c(F)cccc4-c4cscn4)CC3C2)n1 (stereo not drawn) [Example 486, 2-(4,6-Dimethylpyrimidin-2-yl)-5-{[2-fluoro-6-(1,3-thiazol-4-yl)phenyl]carbonyl}octahydropyrrolo[3,4-c]pyrrole] — 270-fold lower, 15 nM
- Cc1cc(C)nc(N2CC3CN(C(=O)c4c(F)cccc4-c4cncs4)CC3C2)n1 (stereo not drawn) [Example 487, 2-(4,6-Dimethylpyrimidin-2-yl)-5-{[2-fluoro-6-(1,3-thiazol-5-yl)phenyl]carbonyl}octahydropyrrolo[3,4-c]pyrrole] — 74-fold lower, 54 nM
- Cc1cc(C)nc(N2CC3CN(C(=O)c4c(F)cccc4-c4ccnnc4)CC3C2)n1 (stereo not drawn) [Example 488, 2-(4,6-Dimethylpyrimidin-2-yl)-5-[(2-fluoro-6-pyridazin-4-ylphenyl)carbonyl]octahydropyrrolo[3,4-c]pyrrole] — 2.5-fold higher, 10000 nM
- Cc1ccnc(-c2cccc(F)c2C(=O)N2CC3CN(c4nc(C)cc(C)n4)CC3C2)c1 (stereo not drawn) [Example 489, 2-(4,6-Dimethylpyrimidin-2-yl)-5-{[2-fluoro-6-(4-methylpyridin-2-yl)phenyl]carbonyl}octahydropyrrolo[3,4-c]pyrrole] — 89-fold lower, 45 nM
- Cc1cc(C)nc(N2CC3CN(C(=O)c4c(F)cccc4-c4ncco4)CC3C2)n1 (stereo not drawn) [Example 491, 2-(4,6-Dimethylpyrimidin-2-yl)-5-{[2-fluoro-6-(1,3-oxazol-2-yl)phenyl]carbonyl}octahydropyrrolo[3,4-c]pyrrole] — 250-fold lower, 16 nM
- Cc1cc(C)nc(N2CC3CN(C(=O)c4cc(F)ccc4-c4cccn4C)CC3C2)n1 (stereo not drawn) [Example 493, 2-(4,6-Dimethylpyrimidin-2-yl)-5-{[5-fluoro-2-(1-methyl-1H-pyrrol-2-yl)phenyl]carbonyl}octahydropyrrolo[3,4-c]pyrrole] — 2.5-fold higher, 10000 nM
- Cc1cc(C)nc(N2CC3CN(C(=O)c4cc(F)ccc4-c4cscn4)CC3C2)n1 (stereo not drawn) [Example 494, 2-(4,6-Dimethylpyrimidin-2-yl)-5-{[5-fluoro-2-(1,3-thiazol-4-yl)phenyl]carbonyl}octahydropyrrolo[3,4-c]pyrrole] — 22-fold lower, 180 nM
- Cc1nc(N2CC3CN(C(=O)c4cccc(F)c4-c4ncco4)CC3C2)ncc1F (stereo not drawn) [Example 496, 2-(5-Fluoro-4-methylpyrimidin-2-yl)-5-{[3-fluoro-2-(1,3-oxazol-2-yl)phenyl]carbonyl}octahydropyrrolo[3,4-c]pyrrole] — 150-fold lower, 26 nM
